Experimental data published in US7579439B2, “Modulation of IL-2- and IL-15-mediated T cell responses” (Beth Israel Deaconess Medical Center, Inc., priority 2000, dated 2009).

How the values were obtained:
[1] = system: IL-2Rγ+ BAF-BO3 cell transfectants that express the IL-2Rβ subunit; experiment: BAF-BO3 cell proliferation assay (IL-2Rβ transfectants); format: cell-based
Procedure: (§1) In the next series of experiments, the FLAG-HMK-IL-15 fusion protein was tested to determine whether it could function as a biologically active growth factor.

[2] = system: IL-15 binding sites on PHA-activated human PBMCs; experiment: Cytofluorometric analysis of binding to PBMCs (anti-FLAG biotinylated Ab, streptavidin-RED670); conditions: flow cytometry
Procedure: The FLAG-HMK-IL-15 fusion protein, biotinylated anti-FLAG antibody, and streptavidin-RED670 were employed to detect expression of IL-15 binding sites on human PBMCs by cytofluorometric analysis. The PBMCs tested were either freshly isolated or PHA-activated. These cells were washed and incubated with either medium alone or FLAG-HMK-IL-15 followed by anti-FLAG biotinylated Ab and streptavidin-RED670. The stained cells were analyzed by flow cytometry. […] Both activated CD4^+ and CD8^+ cells express IL-15α chains. Activation induced IL-15Rα chains were also detected on CD14^+ (monocyte/macrophage) cells and CD16^+ (natural killer) cells.
PHA-activated PBMCs were washed and incubated with medium alone, or with the FLAG-HMK-IL-15 double mutant. The cells were then incubated with an anti-FLAG biotinylated antibody and stained with streptavidin conjugated to RED670. The stained cells were analyzed by flow cytometry.

human IL-15Rα subunit = biological target: T1, human IL-15Rα subunit (Homo sapiens, UniProt Q13261); experiment: Cross-linking of [32P]-FLAG-HMK-IL-15 to PHA-activated PBMCs (DSS, SDS-PAGE autoradiography); format: binding; conditions: cross-linked with DSS; band lost with molar excess of hIL-15
T1 construct: endogenous in cells
Procedure: The purified FLAG-HMK-IL-15 fusion protein was tested to determine whether it interacts with cell surface IL-15 receptors. As described above, [^32P]-FLAG-HMK-IL-15 was added to cultures of PBMCs that were activated by a mitogen, PHA. In order to permanently bind interactive proteins to one another, the chemical cross-linker disuccinimidyl suberate (DSS) was added. The cells were washed, lysed, centrifuged, and detergent-soluble proteins were separated by SDS-PAGE. […] The identity of this band as the IL-15Rα subunit was confirmed by cross-linking experiments conducted in the presence of a molar excess of hIL-15.

[3] = system: PHA-activated human PBMCs; experiment: [3H]-TdR incorporation assay, PHA-activated PBMCs; format: cell-based
Procedure: as §1

[4] = system: parental BAF-BO3 cells transfected with a vector lacking IL-2Rβ chain sequences; experiment: BAF-BO3 cell proliferation assay (parental cells, vector lacking IL-2Rβ); format: cell-based; conditions: parental BAF-BO3 cells lacking IL-2Rβ
Procedure: In the next series of experiments, the FLAG-HMK-IL-15 fusion protein was tested to determine whether it could function as a biologically active growth factor. […] Thus, FLAG-HMK-IL-15 is a biologically active growth factor that requires expression of IL-2Rβ chains upon target cells in order to stimulate cellular proliferation.

[5] = system: leukemic cell lines MOLT-14, YT, HuT-102, 2A and 2B; experiment: FACS analysis of leukemic cell lines stained with FLAG-HMK-IL-15; format: binding; conditions: flow cytometry
Procedure: The cells treated were obtained from the leukemic cell lines MOLT-14, YT, HuT-102, and from cell lines currently being established at Beth Israel Hospital (Boston, Mass.), and named 2A and 2B. The cultured cells were washed and incubated with either medium alone or with medium containing the FLAG-HMK-IL-15 wild-type polypeptide. The cells were then incubated with the biotinylated anti-FLAG antibody and stained with RED670-conjugated streptavidin. The stained cells were analyzed by flow cytometry.

[6] = system: T cells at the second cell division in vivo; experiment: In vitro proliferation of sorted in vivo dividing T cells (3H-TdR uptake); format: cell-based, mice; conditions: IL-2 in doses as high as; IL-15 5 ng/ml; 48 hours
Procedure: CFSE-labeled lymphocytes were stimulated in vivo for three days and cell division was analyzed by examining the CFSE profile. T cells in the second cell division were sorted and cells (1×10^4) were cultured in vitro with IL-2 or IL-15 for two days. Cellular proliferation was determined by ^3H-TdR uptake. The results are presented as the mean CPM±SD of triplicate assays.
Cell sorting and in vitro proliferation assays were carried out as follows. CFSE-labeled cells were prepared from irradiated allogeneic hosts three days after intravenous injection of labeled cells, and cell proliferation in vivo was identified by analysis of the cells' CFSE profile. The second cell division was selected, gated, and sorted with FACS Vantage™. Cells (1×10^4/ml) were resuspended in RPMI 1640 medium with 10% FCS and 1% penicillin and streptomycin, and stimulated with IL-2 (40 μ/ml to 500 μ/ml) or IL-15 (5 ng/ml) for 48 hours. Cells were pulsed with 1 mCi 3H-TdR (Amersham, Boston, Mass.) for 16 hours and ^3H-TdR uptake was determined by scintillation counting (Beckman Instrument, Columbia, Md.).

T1 sequence (Q13261 31-267): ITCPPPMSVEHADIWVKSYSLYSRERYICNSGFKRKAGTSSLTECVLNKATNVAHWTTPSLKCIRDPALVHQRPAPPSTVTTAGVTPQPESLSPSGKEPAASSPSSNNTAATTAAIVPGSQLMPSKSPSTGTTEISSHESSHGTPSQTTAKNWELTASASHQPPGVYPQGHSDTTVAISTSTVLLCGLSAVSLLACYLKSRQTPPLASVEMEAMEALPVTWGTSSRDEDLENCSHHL

binding to the IL-15Rα subunit on the surface of mitogen-activated PBMCs (human IL-15Rα subunit) | Substance | inhibition of BAF-BO3 proliferation ([1]; 30 μl versus 20 μL of approximately 50 μg/ml) | binding to PHA activated PBMCs [2] | stimulation of cell proliferation [3] | stimulation of proliferation ([1]; BAF-BO3 transfectants expressing IL-2Rβ) | stimulation of proliferation [4] | binding to leukemia cells [5] | T cell proliferation by 3H-TdR uptake [6]
 | FLAG-HMK-IL-15 double mutant: human IL-15 protein bearing a double mutation (Q149D; Q156D), FLAG-HMK tagged | inhibit BAF-BO3 proliferation in a dose-dependent manner | bind PHA activated human PBMCs was demonstrated |  |  |  |  | 
site specific binding | FLAG-HMK-IL-15: IL-15 polypeptide having an N-terminus covalently bound to the 18 amino acid FLAG-HMK-sequence |  | blocked by a molar excess of rIL-15 | proliferate in response to | stimulates proliferation | does not, however, stimulate the proliferation | bind leukemia cells was shown | 
 | IL-15: recombinant human IL-15 |  |  |  |  |  |  | stimulated vigorous cell proliferation
